These are literature values, as cited in patent US20110245352A1, “Composition For Permeabilizing The Walls Of Microorganisms Comprising The Combination Of Ethylenediaminetetraacetic Acid (EDTA) And Polyethyleneimine (PEI)” (Millipore Corporation, priority 2007, published 2011).

The data set deals with gram-positive bacteria. Conditions: EDTA taken alone; in particular gram-positive bacteria.

Consider `O=C(O)CN(CCN(CC(=O)O)CC(=O)O)CC(=O)O` [EDTA, Ethylenediaminetetraacetic acid], for which the “Permeabilization of microorganism walls for labeling of nucleic acids” value is reported as “does not allow satisfactory permeabilization”.
